Among the data in paper PMC12040169 (PLOS Biology, 2025) are viability values, retold here.

This data set in a line: in vitro. The following applies: human, hela cells, % viability.

Take `O=C(NCc1cccc2ccccc12)c1ccccc1-n1cccc1` [CBK149585]: the viability at 28.5 h, 10 µM was found to be 99.8%. In the case of `COc1cc(CN2CCC3(CC2)CN(CCO)c2ccccc23)cc(OC)c1OC` [CBK131524], the viability at 28.5 h, 10 µM turned out to be 94.9%.

On to `CC(C)Cc1cc(CNS(=O)(=O)Cc2ccccc2F)on1` [CBK281505], for which the viability at 28.5 h, 10 µM amounted to 96.6%. `N#Cc1ccccc1N1CCN(c2cncc(-c3ccc(CO)cc3)n2)CC1` [CBK037383]: the viability at 28.5 h, 10 µM was 86.9%. Still for that read-out and setting: for `O=C1CN(c2cccc(C(F)(F)F)c2)C(=O)N1c1ccc(Cl)cc1` [CBK122769] the value was 108%. `N#CC1(c2ccccc2)CCN(C(=O)CCC(F)(F)F)CC1` [CBK091399]: the viability at 28.5 h, 10 µM (bulk resorufin, single well) was determined as 97.7%.

For the molecule `O=C(OCCC1SC(NC2CC3C=CC2C3)=NC1=O)c1cc(F)ccc1F` (stereo not drawn) [CBK200059T], the viability at 28.5 h, 10 µM stood at 92.2%. The same measure, in the same setting: for `CCN1CC(C(=O)N2CC(O)CC2c2cc(F)ccc2F)CC1=O` (stereo not drawn) [CBK304031] the value was 103%. Still for that read-out and setting: for `COc1ccc(CNC(=O)C2CCCN(c3cnc4ccccc4n3)C2)cc1` (stereo not drawn) [CBK287772] the value was 112%. Still for that read-out and setting: for `Brc1ccc(Nc2ncnc3nc[nH]c23)cc1` [CBK287386] the value was 105%; for `Nc1ccc(S(=O)(=O)O)c2cccc(S(=O)(=O)O)c12` [CBK261492N], 99.6%. For the molecule `CCOc1ccc(C(=O)CCNCC(=O)O)cc1` [CBK286657], the viability at 28.5 h, 10 µM is 94.4%.

With `Cc1ccc(C2C=C(c3ccccc3)Nc3nc(N4C(=O)CCC4=O)nn32)cc1` (stereo not drawn) [CBK266197], the viability at 28.5 h, 10 µM turned out to be 98.6%. For the molecule `CC(C)(C)OC(=O)N1CCN(c2nccnc2Cl)CC1` [CBK013554], the viability at 28.5 h, 10 µM was determined as 102%. As for `Cc1cc(=O)oc2cc(OC(C)C(=O)NCC(=O)O)ccc12` (stereo not drawn) [CBK286829], the viability at 28.5 h, 10 µM worked out at 106%. On the same count and under the same terms, for `CC(C)(C)C(=O)CSc1nnc(-c2ccccn2)s1` [CBK006894] the value was 91.9%. On the same count and under the same terms, the same measure for `O=C(Nc1cccnc1N1CCNCC1)c1cccnc1` [CBK029426T]: 120%.

For the molecule `Cc1cc(C2CCCCCN2Cc2c(C)nn(C)c2C)on1` (stereo not drawn) [CBK282967], the viability at 28.5 h, 10 µM came to 99.7%. Still for that read-out and setting: the same measure for `CCCCC(C(=O)O)N1C(=O)C2CC=C(Cl)CC2C1=O` (stereo not drawn) [CBK286536]: 91.4%; for `CC(CN1CCN(Cc2ccccc2)CC1)N(C(=O)c1ccoc1)c1ccccn1` (stereo not drawn) [CBK074861C]: 92.1%; for `Cc1ccc(CNS(=O)(=O)c2ccc3ccccc3c2)cc1` [CBK266501]: 102%. Still for that read-out and setting: the same measure for `O=C(c1cc(C2CC2)on1)N1CCn2cc(C(F)(F)F)nc2C1` [CBK282425]: 85.4%. Still for that read-out and setting: the same measure for `COc1cc(CN2CCOC3(CCN(C(=O)OCc4ccccc4)CC3)C2)cc(OC)c1OC` [CBK161104T]: 79.4%; for `Cc1nc(O)cc(C2CCN(C(=O)c3csc4c3CCCC4)CC2)n1` [CBK307618]: 104%; for `Cc1cc(C)c(CNC(=O)N(C)C(C)c2ccncn2)cn1` (stereo not drawn) [CBK307192]: 93.4%. As to `Cc1ccsc1C(C)NC1CCCN(c2ccn(C)n2)C1=O` (stereo not drawn) [CBK306419], the viability at 28.5 h, 10 µM amounted to 106%.

For `CCOc1ccc(NC(=O)c2ccc(S(=O)(=O)N(C)C)cc2)c([N+](=O)[O-])c1` [CBK263396], the viability at 28.5 h, 10 µM is 90.6%.

Regarding `COc1ccc(CCNC(=S)NC2CC3CCC2C3)cc1OC` (stereo not drawn) [CBK015410], the viability at 28.5 h, 10 µM stood at 90.8%.

As for `CC(C(=O)N(C)C)n1cccc1` (stereo not drawn) [CBK012421], the viability at 28.5 h, 10 µM is 86.4%. On the same count and under the same terms, the same measure for `O=C(CN1CCCC2(CCN(C(=O)Cc3c[nH]c4ccccc34)C2)C1)c1ccsc1` (stereo not drawn) [CBK132053]: 96.3%.

On to `CN(C)C(=O)Cn1nc(-c2cc3c(s2)CCC3)oc1=O` [CBK284715], for which the viability at 28.5 h, 10 µM was 99%.

Take `NC(=O)c1ccc(-c2ccc(/C=C3/C(=O)NN(c4ccc(F)cc4)C3=O)o2)cc1` [CBK098345]: the viability at 28.5 h, 10 µM is 89.9%. On the same count and under the same terms, the same measure for `c1ccc2c(c1)OCc1nnc(CCN3CCCCC3)n1-2` [CBK005285]: 95.2%; for `CSc1ncc(Cl)c(C(=O)Nc2sc3c(c2C(=O)NCc2ccco2)CCCC3)n1` [CBK268971]: 96.6%.

In the case of `COc1cc(CN2CCC(Cc3ccccc3-c3ccccc3)(C(N)=O)CC2)cc(OC)c1` [CBK285912], the viability at 28.5 h, 10 µM was 88.1%.

Regarding `c1nc(NCCN2CCOCC2)c2c3c(sc2n1)CCCCC3` [CBK268418], the viability at 28.5 h, 10 µM was found to be 103%.

As for `Cc1ccc(N(CC(=O)Nc2ccc(S(=O)(=O)N3CCCCC3)cc2)S(C)(=O)=O)c(C)c1` [CBK263981], the viability at 28.5 h, 10 µM came out at 99.8%. Same read-out and setting: for `O=C(CNC(=O)c1ccccc1F)N/N=C/c1cccs1` [CBK261953] the value was 97.8%; for `Cc1nc2cc(C(=O)N3CCCCC3CN3CCOCC3)ccc2[nH]1` (stereo not drawn) [CBK304219], 109%; for `O=C1c2ccccc2CN1c1cccc2ccccc12` [CBK113190], 85.3%. The same measure, in the same setting: the same measure for `COc1ccc(C2N3CCCN2CC3)cc1` (stereo not drawn) [CBK067068]: 92.3%.

Turning to `O=S(=O)(CC(F)(F)F)Nc1cccc2cc[nH]c12` [CBK153585], the viability at 28.5 h, 10 µM was determined as 99.5%. Same read-out and setting: the same measure for `Cc1nnc([C@H]2CCN(Cc3cccs3)C2)o1` [CBK289393]: 103%; for `O=[N+]([O-])c1cc(S(=O)(=O)N2CCCCCC2)ccc1NCc1ccccc1` [CBK262804]: 88.3%; for `C/C(=N\c1ccccc1C(F)(F)F)c1ccncc1` [CBK021262]: 86.6%.

`CCCn1c(=O)c(C(=O)NCCN(CC)CC)c(O)c2cc(Br)ccc21` [CBK291118]: the viability at 28.5 h, 10 µM was 85.7%.

`CC(=O)N1CC(C)(C)c2ccccc21` [CBK003715]: the viability at 28.5 h, 10 µM stood at 99.6%. Still for that read-out and setting: the same measure for `COC(=O)c1sccc1Oc1ccc([N+](=O)[O-])cn1` [CBK066826]: 115%; for `Cc1cccn2cc(C(=O)NC(C)CN3CCCC3)nc12` (stereo not drawn) [CBK281714]: 99.6%; for `CN(C)c1cccc(-c2cc(NC3CCCCC3)ncn2)c1` [CBK090900]: 109%.

As to `CC1CCCCN1Cc1nc2c(c(=O)n(C)c(=O)n2C)n1CCc1ccccc1` (stereo not drawn) [CBK269189], the viability at 28.5 h, 10 µM worked out at 117%. As for `CC(C)NC(=O)Cn1cc(C(=O)COc2ccccc2)c2ccccc21` [CBK268317], the viability at 28.5 h, 10 µM (bulk resorufin, single well) came out at 82.6%. With `COc1ccc2[nH]cc(CCNC(=O)CCCN(C)C)c2c1` [CBK116202], the viability at 28.5 h, 10 µM amounted to 96.4%. On the same count and under the same terms, for `Cc1nnc(N2C(=O)c3oc4ccccc4c(=O)c3C2c2ccc(OCc3ccccc3)cc2)s1` (stereo not drawn) [CBK266287] the value was 94.9%; for `CC(C)[C@@H](CO)Nc1nc(-c2ccc3ccccc3c2)cn2ccnc12` [CBK037445], 85.8%. The same measure, in the same setting: for `c1ccc(CCN2CCCN(c3ccnc(OCCN4CCOCC4)n3)CC2)cc1` [CBK083810] the value was 89.3%; for `Cc1cccn2c(CN3CCCC(O)C3)c(C(=O)N3CCCCC3)nc12` (stereo not drawn) [CBK307342], 94%; for `COc1cccc(CNC(=O)Cn2nnc(-c3ccc(CN4CCC(C)CC4)cc3)n2)c1OC` [CBK144161C], 94.1%. Consider `COC(=O)c1ccc(S(=O)(=O)N2CCC(C)CC2)cc1` [CBK070414], for which the viability at 28.5 h, 10 µM amounted to 98.1%. For `CCC(=O)Nc1ccc(C(=O)N2CCN(c3ccccc3)CC2)cc1` [CBK307425], the viability at 28.5 h, 10 µM worked out at 105%. On to `Clc1ccc(Cn2ncc3c(NCCN4CCOCC4)ncnc32)cc1` [CBK266230], for which the viability at 28.5 h, 10 µM was found to be 105%. With `CC1OCN(c2ccc(C(C)(C)C)cc2)Cn2c1nc1ccccc12` (stereo not drawn) [CBK018706], the viability at 28.5 h, 10 µM worked out at 88%. On the same count and under the same terms, for `CC(=O)NC(c1ccccn1)C1CCN(C(=O)C2CCCCC2)CC1` (stereo not drawn) [CBK285049] the value was 98%; for `CC(=O)c1ccc(NC(=O)N2Cc3nc[nH]c3C[C@H]2c2nc(-c3ccc(C)cc3)no2)cc1` [CBK288959], 83.6%. The same measure, in the same setting: for `CC(C)(C)OC(=O)N1CCC(NC(=O)c2ccc(-c3ccc(S(C)(=O)=O)cc3)cn2)CC1` [CBK174352] the value was 84.8%; for `CCn1c(CCCNC=O)nc2ccccc21` [CBK269551], 86.2%.

Regarding `O=C(N/N=C/c1ccc(-c2ccc([N+](=O)[O-])cc2)o1)c1cccnc1` [CBK262287], the viability at 28.5 h, 10 µM is 92.3%. Consider `CCCCC1CCC(C(=O)Nc2ncccn2)CC1` (stereo not drawn) [CBK027423], for which the viability at 28.5 h, 10 µM turned out to be 113%. The same measure, in the same setting: the same measure for `c1ccc(COc2nccnc2-c2ccccc2)cc1` [CBK106686]: 92.2%. Still for that read-out and setting: the same measure for `CCCn1ncc(C(=O)NC(CC)c2cn3cccnc3n2)c1C` (stereo not drawn) [CBK307640]: 92.9%; for `CCCc1[nH]nc(O)c1CCc1cccc(OC)c1OC` [CBK075078]: 97%; for `COc1ccccc1-c1cnc2[nH]c(=O)n(C3CCCCC3)c2n1` [CBK064203]: 98.7%.

As for `O=C(NC1CCCC1)c1ccc2ncccc2c1` [CBK200118], the viability at 28.5 h, 10 µM is 90.2%. Still for that read-out and setting: for `COC(=O)c1ccc(CO)nc1` [CBK261376C] the value was 104%; for `O=C(c1cc(-c2ccncc2)nc2ccc(Cl)cc12)N1CCN(C/C=C/c2ccccc2)CC1` [CBK267754], 106%.

As for `O=c1oc2ccccc2c(NCCCN2CCOCC2)c1[N+](=O)[O-]` [CBK261471], the viability at 28.5 h, 10 µM was 120%.

On to `COc1cccc(/C=C/C2=NN(c3cccc(F)c3)C(c3cccc(OC)c3OC)C2)c1OC` (stereo not drawn) [CBK260983], for which the viability at 28.5 h, 10 µM was 104%. For `OC1(c2cccnc2F)CCN(Cc2ccc(F)c(F)c2)CC1` [CBK284370], the viability at 28.5 h, 10 µM was determined as 90%. Still for that read-out and setting: for `COc1ccc(-c2nnc(SCC(=O)c3ccc(C)o3)o2)cc1` [CBK268334] the value was 88%.

With `CCn1c(C(CC(C)C)NC(=O)C2CC2)nc2cccnc21` (stereo not drawn) [CBK283736], the viability at 28.5 h, 10 µM amounted to 103%. On the same count and under the same terms, for `COc1cc([C@@]23CCC(=O)C[C@@H]2N(C)CC3)ccc1OCc1ccccc1` [CBK049727] the value was 106%.

As a reminder, the viability is a read-out of living cells in per cent, often relative to untreated cells.
